Reference: patent US8362008B2 (The University Of Edinburgh, priority 2007, dated 2013)

Columns and labels:
[1] = molecular target: T1, human 11β-HSD2 (Homo sapiens, UniProt P80365); assay: Cellular in vitro 11β-HSD2 enzyme inhibition assay (CHO cells, TLC/phosphoimager); format: cell-based; details: CHO cells stably transfected with human 11β-HSD2; Table 1
T1 construct: CHO cells stably transfected with the full-length gene coding for human 11β-HSD2 were used; expressed in transfected cells; host or cells: CHO
T1 sequence (P80365 1-405): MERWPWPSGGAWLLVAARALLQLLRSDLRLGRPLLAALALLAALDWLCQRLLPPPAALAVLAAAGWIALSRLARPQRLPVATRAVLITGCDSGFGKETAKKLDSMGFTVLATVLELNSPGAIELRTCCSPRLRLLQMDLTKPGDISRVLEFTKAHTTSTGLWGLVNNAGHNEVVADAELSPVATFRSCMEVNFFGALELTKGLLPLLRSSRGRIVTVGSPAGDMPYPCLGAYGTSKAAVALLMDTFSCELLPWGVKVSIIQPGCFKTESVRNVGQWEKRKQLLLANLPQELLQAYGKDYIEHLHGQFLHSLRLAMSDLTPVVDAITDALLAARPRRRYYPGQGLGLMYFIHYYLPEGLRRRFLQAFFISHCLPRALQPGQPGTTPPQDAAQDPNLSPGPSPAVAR
Procedure: Cellular In Vitro 11β-HSD2 Enzyme Inhibition Assay
For measurement of inhibition of 11β-HSD2, CHO cells stably transfected with the full-length gene coding for human 11β-HSD2 were used. Assays were carried out in 96-well microplates containing 1×10^5 cells/well. Controls and compounds were plated as above, so that the final DMSO concentration in each well was 1%. To initiate the assay, 90 μL of a solution of HAMS F-12 medium containing 1% glutamine, 1% penicillin and streptomycin, and 22 nM tritiated cortisol was added to each well of the assay plate. The plate was then incubated in 5% CO2, 95% O2 at 37° C. for 16 hours.
The assay solutions were transferred to glass tubes and 20 μL ethyl acetate added to each tube. Each tube was vortexed thoroughly and the upper layer containing the tritiated steroid transferred to a fresh glass tube. The solvent was evaporated by placing the tubes in a heating block at 65° C. under a stream of Nitrogen gas. 20 μL ethanol was added to each of the dried samples and vortexed briefly. Each sample was applied to a silica TLC plate and the plate dried. The plate was placed vertically in a glass tank containing 92% chloroform:8% ethanol and the solvent allowed to rise up the plate. The plate was dried, placed in an imaging cassette, and overlayed with a tritium imaging plate for 1-2 days. The amount of enzyme inhibition in each sample was determined by measuring the intensity of the substrate and product spots using a phosphoimager.
IC50 values for inhibitors were determined as described for 11β-HSD1.

[2] = molecular target: T2, human 11β-HSD1 enzyme (Homo sapiens, UniProt P28845); assay: Cellular in vitro 11β-HSD1 enzyme inhibition assay (SPA, HEK293/11β-HSD1 cells); format: cell-based
T2 construct: stably transfected with a construct containing the full-length gene coding for the human 11β-HSD1 enzyme; expressed in transfected cells; host or cells: HEK293 (HEK293/11β-HSD1 cells)
Summary of the method: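 Stably transfected HEK293 cells expressing full-length human 11β-HSD1 were plated 24 h, then incubated with compound 2 h at 37 °C; cortisol formed was quantified by SPA with anti-cortisol antibody. Percent inhibition used no-cell (minimum) and no-compound (maximum) wells; IC50 from four-parameter logistic fit.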

[3] = HEK293, less than or equal to 1000 nM (1 μM)
[4] = HEK293 cells stably transfected with human 11β-HSD1, Table 1
[5] = HEK293, more than 1000 nM (1.0 μM) and less than or equal to 30 μM

T2 sequence (P28845 whole entry): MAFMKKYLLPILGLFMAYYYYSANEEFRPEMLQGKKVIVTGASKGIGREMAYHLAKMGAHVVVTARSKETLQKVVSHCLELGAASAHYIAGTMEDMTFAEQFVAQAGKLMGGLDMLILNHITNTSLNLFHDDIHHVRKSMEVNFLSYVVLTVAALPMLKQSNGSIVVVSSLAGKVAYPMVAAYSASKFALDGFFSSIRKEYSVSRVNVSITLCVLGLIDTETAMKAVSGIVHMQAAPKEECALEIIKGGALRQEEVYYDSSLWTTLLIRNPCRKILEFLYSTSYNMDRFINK

CC(=O)N1CCC(c2cc(C(=O)N3CCC[C@@H]4CCCC[C@@H]43)cs2)C1 (relative stereo) [CC-111, cis-1-{3-[4-(Octahydro-quinoline-1-carbonyl)-thiophen-2-yl]-pyrrolidin-1-yl}ethanone]
IC50 [1]: > 10000 nM
IC50 [2, 3]: ≤ 1000 nM
IC50 [2, 4]: 20 nM

O=C(c1csc(C2CCNCC2)c1)N1CCC[C@@H]2CCCC[C@@H]21 (single isomer, unassigned) [CC-033, cis-(octahydro-quinolin-1-yl)-(5-piperidin-4-yl-thiophen-3-yl)-methanone]
IC50 [1]: > 10000 nM
IC50 [2, 4]: 127 nM

CCc1cc(C(=O)N2CCCCC2)c(Cl)s1 [AA-001, (2-Chloro-5-ethyl-thiophen-3-yl)-piperidin-1-yl-methanone]
IC50 [1]: > 10000 nM
IC50 [2, 3]: ≤ 1000 nM
IC50 [2, 4]: 281 nM

CCc1cc(C(=O)N2CC3(C)CC2CC(C)(C)C3)cs1 (stereo not shown) [AA-014, (5-Ethyl-thiophen-3-yl)-(1,3,3-trimethyl-6-aza-bicyclo[3.2.1]oct-6-yl)-methanone]
IC50 [1]: > 10000 nM
IC50 [2, 3]: ≤ 1000 nM
IC50 [2, 4]: 4 nM

COCc1cc(C(=O)N2CCCC3(CCCCC3)C2)cs1 [BB-007]
IC50 [1]: > 10000 nM
IC50 [2, 3]: ≤ 1000 nM
IC50 [2, 4]: 68 nM

CC1(C)CCCN(C(=O)c2csc(C3CCOCC3)c2)C1 [CC-003]
IC50 [1]: > 10000 nM
IC50 [2, 3]: ≤ 1000 nM
IC50 [2, 4]: 150 nM

CNC(=O)N1CCC(c2cc(C(=O)N3CCCC4CCCCC43)cs2)CC1 (stereo not shown) [CC-106]
IC50 [1]: > 10000 nM
IC50 [2, 3]: ≤ 1000 nM
IC50 [2, 4]: 96 nM

COC(=O)N1CCC(c2cc(C(=O)N3CCCCC3c3ccccc3)cs2)CC1 (stereo not shown) [CC-119]
IC50 [1]: > 10000 nM
IC50 [2, 3]: ≤ 1000 nM
IC50 [2, 4]: 61 nM

CS(=O)(=O)NCCNC(=O)N1CCC(c2cc(C(=O)N3CCCC4CCCCC43)cs2)CC1 (stereo not drawn) [CC-168, cis-4-[4-(Octahydro-quinoline-1-carbonyl)-thiophen-2-yl]-piperidine-1-carboxylic acid(2-methanesulfonylamino-ethyl)-amide]
IC50 [1]: > 10000 nM
IC50 [2, 3]: ≤ 1000 nM
IC50 [2, 4]: 77 nM

CC(C)(C(=O)N1CCCC1)N1CCC(c2cc(C(=O)N3CCCC4CCCCC43)cs2)CC1 (stereo not shown) [CC-170]
IC50 [2, 3]: ≤ 1000 nM

CNC(=O)C(C)(C)N1CCC(c2cc(C(=O)N3CCCC4CCCCC43)cs2)CC1 (stereo not shown) [CC-171]
IC50 [2, 3]: ≤ 1000 nM

O=C(NCCO)N1CCC(c2cc(C(=O)N3CCCC4CCCCC43)cs2)CC1 (stereo not shown) [CC-173]
IC50 [2, 3]: ≤ 1000 nM

CC(C)(C(N)=O)N1CCC(c2cc(C(=O)N3CCCC4CCCCC43)cs2)CC1 (stereo not shown) [CC-174]
IC50 [2, 3]: ≤ 1000 nM

CC1(C)CCCN(C(=O)c2csc(C3CCN(C(=O)NCCO)CC3)c2)CC1 [CC-175]
IC50 [1]: > 10000 nM
IC50 [2, 3]: ≤ 1000 nM
IC50 [2, 4]: 23 nM

CC1(C)CCCN(C(=O)c2csc(C3CCCCC3)c2)C1 [DD-001]
IC50 [2, 3]: ≤ 1000 nM

O=C(c1csc(C2CCCCC2)c1)N1CCCCCC1 [DD-002, Azepan-1-yl-(5-cyclohexyl-thiophen-3-yl)-methanone]
IC50 [1]: > 10000 nM
IC50 [2, 3]: ≤ 1000 nM
IC50 [2, 4]: 882 nM

O=C(c1csc(C2CCCCC2)c1)N1CCCC2CCCCC21 (stereo not shown) [DD-003]
IC50 [2, 5]: 1000 to 30000 nM

CC1(C)CC2CC(C)(CN2C(=O)c2csc(C3CCCCC3)c2)C1 (stereo not shown) [DD-005]
IC50 [2, 3]: ≤ 1000 nM

O=C(c1csc(C2CCCCC2)c1)N1CCCC2(CCCCC2)C1 [DD-006]
IC50 [2, 5]: 1000 to 30000 nM
